Measured values published in patent US20020137929A1, “1 - (3-heterocyclylphenyl) isothiourea, -isourea, -guanidine and -amidine herbicidal agents” (Intellectual Property Department, BASF Aktiengesellschaft, priority 1998, published 2002).

Experiments:
[1] = test system: GLXMAW (Soybean, Williams); test: Preemergence herbicidal evaluation; assay type: in vivo, Glycine max, (L.) Merr. cv Williams; details: rated 4-5 weeks after treatment
Outline: (§1)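 Steps: mix seeds into potting soil; plant atop ~1 inch soil; spray compound in aqueous acetone (~0.0156-0.500 kg/ha equivalent); maintain in greenhouse with watering; rate visually 0-9 versus control at 4-5 weeks.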

[2] = test system: ECHCG (Barnyardgrass); test: Postemergence herbicidal evaluation; assay type: in vivo, Echinochloa crus-galli; details: postemergence
Outline: (§2)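 Two-week seedlings sprayed postemergence at 40 psi; formulation: 1:1 acetone/water, 0.5% TWEEN 20; application ≈0.0156–0.500 kg/ha. Greenhouse grow-out, then 0–9 visual scoring at 4–5 weeks.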

[3] = test system: CYPIR (Rice Flatsedge); test: Preemergence weed control under flooded paddy conditions; assay type: in vivo, Cyperus iria; details: rated 3-4 weeks after treatment
Outline: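 Ratings on a 0-9 visual scale cover stand, vigor, malformation, size, chlorosis and overall appearance relative to a control, taken three to four weeks post-treatment. Application was into flood water over freshly sown silt loam at roughly 0.0313 to 0.500 kg/ha.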

[4] = test system: CASOB (Sicklepod); test: Postemergence herbicidal evaluation; assay type: in vivo, Cassia obtusifolia; details: postemergence
Outline: as §2

[5] = test system: CHEAL (Lambsquarters, Common); test: Postemergence herbicidal evaluation; assay type: in vivo, Chenopodium album; details: postemergence
Outline: as §2

[6] = test system: SETVI (Foxtail, Green); test: Preemergence herbicidal evaluation; assay type: in vivo, Setaria viridis; details: rated 4-5 weeks after treatment
Outline: as §1

[7] = test system: GALAP (Galium); test: Preemergence herbicidal evaluation; assay type: in vivo, Galium aparine; details: rated 4-5 weeks after treatment
Outline: as §1

[8] = test system: TRZAWR (Wheat, Winter, cv Riband); test: Preemergence herbicidal evaluation; assay type: in vivo, Triticum aestivum; details: rated 4-5 weeks after treatment
Outline: as §1

[9] = test system: ORYSAT (Rice, Tebonnet); test: Preemergence herbicidal evaluation; assay type: in vivo, Oryza sativa, (L.) Tebonnet; details: rated 4-5 weeks after treatment
Outline: as §1

[10] = test system: ORYSAT (Rice, Tebonnet); test: Postemergence herbicidal evaluation; assay type: in vivo, Oryza sativa, (L.) Tebonnet; details: postemergence
Outline: as §2

[11] = test system: SAGPY (Arrowhead (Pygmaea)); test: Preemergence weed control under flooded paddy conditions; assay type: in vivo, Sagittaria pygmaea; details: rated 3-4 weeks after treatment
Outline: (§3)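 Herbicidal effect is scored visually on a 0-9 scale against an untreated control, three to four weeks after compounds are pipetted into the flood water (1.5 to 3 cm deep) over seeds planted in silt loam at 0.5 cm depth. Rates: about 0.0313 to 0.500 kg/ha.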

[12] = test system: MOOVA (Monochoria); test: as above; assay type: in vivo, Monochoria vaginalis; details: rated 3-4 weeks after treatment
Outline: as §3

[13] = test system: ZEAMX (Corn, Field); test: Preemergence herbicidal evaluation; assay type: in vivo, Zea mays; details: rated 4-5 weeks after treatment
Outline: as §1

Structure (SMILES): Cn1c(C(F)(F)F)cc(=O)n(-c2cc(N=C3SCC(=O)N3CC(=O)OCC3CCCCC3)c(Cl)cc2F)c1=O [Compound 123, Cyclohexylmethyl 2-{{2-chloro-5-[3,6-dihydro-3-methyl-2,6-dioxo-4-(trifluoromethyl)-1(2H)-pyrimidinyl]-4-fluorophenyl}imino}-4-oxo-3-thiazolidineacetate]
- Preemergence herbicidal rating GLXMAW ([1]; rate 0.0156 kg/ha): 0.0
- Preemergence herbicidal rating GLXMAW ([1]; rate 0.0313 kg/ha): 0.0
- Preemergence herbicidal rating GLXMAW ([1]; rate 0.0625 kg/ha): 1.0
- Preemergence herbicidal rating GLXMAW ([1]; rate 0.1250 kg/ha): 4.0
- Preemergence herbicidal rating GLXMAW ([1]; rate 0.2500 kg/ha): 9.0
- Preemergence herbicidal rating GLXMAW ([1]; rate 0.5000 kg/ha): 6.0
- Herbicidal rating ECHCG ([2]; rate 0.0156 kg/ha): 5.0
- Herbicidal rating ECHCG ([2]; rate 0.0313 kg/ha): 5.0
- Herbicidal rating ECHCG ([2]; rate 0.0625 kg/ha): 7.0
- Herbicidal rating ECHCG ([2]; rate 0.1250 kg/ha): 9.0
- herbicidal effect rating, CYPIR ([3]; 0.0313 kg/ha): 6.0
- herbicidal effect rating, CYPIR ([3]; 0.0625 kg/ha): 5.0
- herbicidal effect rating, CYPIR ([3]; 0.1250 kg/ha): 9.0
- herbicidal effect rating, CYPIR ([3]; 0.2500 kg/ha): 9.0
- Herbicidal rating CASOB ([4]; rate 0.0156 kg/ha): 3.0
- Herbicidal rating CASOB ([4]; rate 0.0313 kg/ha): 3.0
- Herbicidal rating CASOB ([4]; rate 0.0625 kg/ha): 9.0
- Herbicidal rating CASOB ([4]; rate 0.1250 kg/ha): 8.0
- Herbicidal rating CHEAL ([5]; rate 0.0156 kg/ha): 9.0
- Herbicidal rating CHEAL ([5]; rate 0.0313 kg/ha): 9.0
- Herbicidal rating CHEAL ([5]; rate 0.0625 kg/ha): 9.0
- Herbicidal rating CHEAL ([5]; rate 0.1250 kg/ha): 9.0
- Preemergence herbicidal rating SETVI ([6]; rate 0.0156 kg/ha): 7.0
- Preemergence herbicidal rating SETVI ([6]; rate 0.0313 kg/ha): 7.0
- Preemergence herbicidal rating SETVI ([6]; rate 0.0625 kg/ha): 7.0
- Preemergence herbicidal rating SETVI ([6]; rate 0.1250 kg/ha): 9.0
- Preemergence herbicidal rating SETVI ([6]; rate 0.2500 kg/ha): 9.0
- Preemergence herbicidal rating SETVI ([6]; rate 0.5000 kg/ha): 9.0
- Preemergence herbicidal rating GALAP ([7]; rate 0.0156 kg/ha): 2.0
- Preemergence herbicidal rating GALAP ([7]; rate 0.0313 kg/ha): 3.0
- Preemergence herbicidal rating GALAP ([7]; rate 0.0625 kg/ha): 3.0
- Preemergence herbicidal rating GALAP ([7]; rate 0.1250 kg/ha): 7.0
- Preemergence herbicidal rating GALAP ([7]; rate 0.2500 kg/ha): 6.0
- Preemergence herbicidal rating GALAP ([7]; rate 0.5000 kg/ha): 9.0
- Preemergence herbicidal rating TRZAWR ([8]; rate 0.0156 kg/ha): 0.0
- Preemergence herbicidal rating TRZAWR ([8]; rate 0.0313 kg/ha): 0.0
- Preemergence herbicidal rating TRZAWR ([8]; rate 0.0625 kg/ha): 0.0
- Preemergence herbicidal rating TRZAWR ([8]; rate 0.1250 kg/ha): 1.0
- Preemergence herbicidal rating TRZAWR ([8]; rate 0.2500 kg/ha): 1.0
- Preemergence herbicidal rating TRZAWR ([8]; rate 0.5000 kg/ha): 1.0
- Preemergence herbicidal rating ORYSAT ([9]; rate 0.0156 kg/ha): 0.0
- Preemergence herbicidal rating ORYSAT ([9]; rate 0.0313 kg/ha): 0.0
- Preemergence herbicidal rating ORYSAT ([9]; rate 0.0625 kg/ha): 0.0
- Preemergence herbicidal rating ORYSAT ([9]; rate 0.1250 kg/ha): 1.0
- Preemergence herbicidal rating ORYSAT ([9]; rate 0.2500 kg/ha): 3.0
- Preemergence herbicidal rating ORYSAT ([9]; rate 0.5000 kg/ha): 5.0
- Herbicidal rating ORYSAT ([10]; rate 0.0156 kg/ha): 4.0
- Herbicidal rating ORYSAT ([10]; rate 0.0313 kg/ha): 4.0
- Herbicidal rating ORYSAT ([10]; rate 0.0625 kg/ha): 5.5
- Herbicidal rating ORYSAT ([10]; rate 0.1250 kg/ha): 5.5
- herbicidal effect rating, SAGPY ([11]; 0.0313 kg/ha): 5.0
- herbicidal effect rating, SAGPY ([11]; 0.0625 kg/ha): 6.0
- herbicidal effect rating, SAGPY ([11]; 0.1250 kg/ha): 6.0
- herbicidal effect rating, SAGPY ([11]; 0.2500 kg/ha): 8.0
- herbicidal effect rating, MOOVA ([12]; 0.0313 kg/ha): 6.0
- herbicidal effect rating, MOOVA ([12]; 0.0625 kg/ha): 7.0
- herbicidal effect rating, MOOVA ([12]; 0.1250 kg/ha): 9.0
- herbicidal effect rating, MOOVA ([12]; 0.2500 kg/ha): 9.0
- Preemergence herbicidal rating ZEAMX ([13]; rate 0.0156 kg/ha): 0.0
- Preemergence herbicidal rating ZEAMX ([13]; rate 0.0313 kg/ha): 1.0
- Preemergence herbicidal rating ZEAMX ([13]; rate 0.0625 kg/ha): 1.0
- Preemergence herbicidal rating ZEAMX ([13]; rate 0.1250 kg/ha): 5.0
- Preemergence herbicidal rating ZEAMX ([13]; rate 0.2500 kg/ha): 7.0
- Preemergence herbicidal rating ZEAMX ([13]; rate 0.5000 kg/ha): 7.0

Structure (SMILES): CCOC(=O)CN1C(=O)C(C(=O)OC)SC1=Nc1cc(-n2c(=O)cc(C(F)(F)F)n(C)c2=O)c(F)cc1Cl (stereo not drawn) [Compound 128, 5-Carboxy-2-{{2-chloro-5-[3,6-dihydro-3-methyl-2,6-dioxo-4-(trifluoromethyl)-1(2H)-pyrimidinyl]-4-fluorophenyl}imino}-4-oxo-3-thiazolidineacetic acid, 3-ethyl methyl ester]
- Preemergence herbicidal rating GLXMAW ([1]; rate 0.0156 kg/ha): 0.0
- Preemergence herbicidal rating GLXMAW ([1]; rate 0.0313 kg/ha): 0.0
- Preemergence herbicidal rating GLXMAW ([1]; rate 0.0625 kg/ha): 0.0
- Preemergence herbicidal rating GLXMAW ([1]; rate 0.1250 kg/ha): 0.0
- Preemergence herbicidal rating GLXMAW ([1]; rate 0.2500 kg/ha): 0.0
- Herbicidal rating ECHCG ([2]; rate 0.0156 kg/ha): 1.0
- Herbicidal rating ECHCG ([2]; rate 0.0313 kg/ha): 2.0
- Herbicidal rating ECHCG ([2]; rate 0.0625 kg/ha): 1.0
- herbicidal effect rating, CYPIR ([3]; 0.0313 kg/ha): 0.0
- herbicidal effect rating, CYPIR ([3]; 0.0625 kg/ha): 4.0
- herbicidal effect rating, CYPIR ([3]; 0.1250 kg/ha): 4.0
- herbicidal effect rating, CYPIR ([3]; 0.2500 kg/ha): 4.0
- Herbicidal rating CASOB ([4]; rate 0.0156 kg/ha): 1.0
- Herbicidal rating CASOB ([4]; rate 0.0313 kg/ha): 1.0
- Herbicidal rating CASOB ([4]; rate 0.0625 kg/ha): 7.0
- Herbicidal rating CHEAL ([5]; rate 0.0156 kg/ha): 4.0
- Herbicidal rating CHEAL ([5]; rate 0.0313 kg/ha): 9.0
- Herbicidal rating CHEAL ([5]; rate 0.0625 kg/ha): 9.0
- Preemergence herbicidal rating SETVI ([6]; rate 0.0156 kg/ha): 0.0
- Preemergence herbicidal rating SETVI ([6]; rate 0.0313 kg/ha): 1.0
- Preemergence herbicidal rating SETVI ([6]; rate 0.1250 kg/ha): 1.0
- Preemergence herbicidal rating SETVI ([6]; rate 0.2500 kg/ha): 7.0
- Preemergence herbicidal rating GALAP ([7]; rate 0.0156 kg/ha): 0.0
- Preemergence herbicidal rating GALAP ([7]; rate 0.0313 kg/ha): 0.0
- Preemergence herbicidal rating GALAP ([7]; rate 0.0625 kg/ha): 0.0
- Preemergence herbicidal rating GALAP ([7]; rate 0.1250 kg/ha): 1.0
- Preemergence herbicidal rating GALAP ([7]; rate 0.2500 kg/ha): 1.0
- Preemergence herbicidal rating TRZAWR ([8]; rate 0.0156 kg/ha): 0.0
- Preemergence herbicidal rating TRZAWR ([8]; rate 0.0313 kg/ha): 0.0
- Preemergence herbicidal rating TRZAWR ([8]; rate 0.0625 kg/ha): 0.0
- Preemergence herbicidal rating TRZAWR ([8]; rate 0.1250 kg/ha): 0.0
- Preemergence herbicidal rating TRZAWR ([8]; rate 0.2500 kg/ha): 0.0
- Preemergence herbicidal rating ORYSAT ([9]; rate 0.0156 kg/ha): 0.0
- Preemergence herbicidal rating ORYSAT ([9]; rate 0.0313 kg/ha): 0.0
- Preemergence herbicidal rating ORYSAT ([9]; rate 0.0625 kg/ha): 0.0
- Preemergence herbicidal rating ORYSAT ([9]; rate 0.1250 kg/ha): 0.0
- Preemergence herbicidal rating ORYSAT ([9]; rate 0.2500 kg/ha): 0.0
- Herbicidal rating ORYSAT ([10]; rate 0.0156 kg/ha): 1.5
- Herbicidal rating ORYSAT ([10]; rate 0.0313 kg/ha): 2.0
- Herbicidal rating ORYSAT ([10]; rate 0.0625 kg/ha): 2.5
- herbicidal effect rating, SAGPY ([11]; 0.0313 kg/ha): 0.0
- herbicidal effect rating, SAGPY ([11]; 0.0625 kg/ha): 3.0
- herbicidal effect rating, SAGPY ([11]; 0.1250 kg/ha): 4.0
- herbicidal effect rating, SAGPY ([11]; 0.2500 kg/ha): 6.0
- herbicidal effect rating, MOOVA ([12]; 0.0313 kg/ha): 6.0
- herbicidal effect rating, MOOVA ([12]; 0.0625 kg/ha): 7.0
- herbicidal effect rating, MOOVA ([12]; 0.1250 kg/ha): 9.0
- herbicidal effect rating, MOOVA ([12]; 0.2500 kg/ha): 9.0
- Preemergence herbicidal rating ZEAMX ([13]; rate 0.0156 kg/ha): 0.0
- Preemergence herbicidal rating ZEAMX ([13]; rate 0.0313 kg/ha): 0.0
- Preemergence herbicidal rating ZEAMX ([13]; rate 0.0625 kg/ha): 0.0
- Preemergence herbicidal rating ZEAMX ([13]; rate 0.1250 kg/ha): 0.0
- Preemergence herbicidal rating ZEAMX ([13]; rate 0.2500 kg/ha): 0.0
